Patent US9879029B2, “ERK inhibitors” (Eli Lilly and Company, priority 2014, dated 2018)

Columns and labels:
ERK1 = biological target: T1, ERK1 (Homo sapiens, UniProt P27361); experiment: ERK1 kinase assay (TR-FRET); assay type: biochemical; conditions: Abs_IC50, ATP 10 μM; ±0.608, n=16
T1 construct: purchased Invitrogen PR5254B
Protocol: The purpose of this assay is to measure the ability of compounds to inhibit ERK1 kinase activity. Perform the ERK1 kinase assay in vitro using a TR-FRET assay. […] Incubate the reaction mixture at room temperature for 60 minutes. Stop the reaction by addition of 12.5 μL of stop buffer (10 mM EDTA, 2 nM Tb-anti-pATF2 (pThr71) antibody, Invitrogen, #PV4448) in TR-FRET dilution buffer (Invitrogen, # PV3574). Incubate the plates at room temperature for an additional 60 minutes and read on an ENVISION® (PerkinElmer) plate reader at the excitation wavelength 340 nm. Calculate the TR-FRET ratio by dividing the GFP acceptor emission signal (at 520 nm) by the Tb donor emission signal (at 495 nm). Calculate percent inhibition using compound treated wells relative to on-plate Max (DMSO control) and Min (No enzyme added) control wells TR-FRET ratio data {% inhibition=100−[(test compound−median Min)/(median Max−median Min)×100]}). Test all compounds at 10 concentrations (20 μM to 0.001 μM) using a 1:3 dilution scheme. Derive Abs_IC50 values by fitting percent inhibition and ten-point concentration data to a 4-parameter nonlinear logistic equation (equation 205) using ACTIVITYBASE® 7.3 (ID Business Solutions Limited).

[1] = test system: ERK substrate (RSK) phosphorylation in HCT116 colorectal cancer cell line; experiment: ERK1/2 cell mechanistic assay (pRSK1 Alphascreen assay); assay type: cell-based; conditions: Homo sapiens, HCT-116, 2 h; HCT116 cells, two hours, Rel IC50; read-out: pRSK1 inhibition IC50
Protocol: The purpose of this assay is to measure the ability of compounds to inhibit ERK signaling in cancer cells in vitro. Carry out the pRSK1 Alphascreen assay using the HCT116 colorectal cancer cell line (ATCC, # CCL-247). Routinely culture HCT116 cells in Dulbecco's Modified Eagle's Medium (DMEM) (Hyclone, #SH30022) growth medium containing 5% Fetal Bovine Serum (FBS) (Gibco, #16000-044) in T-150 flasks and incubate in a 5% CO2 incubator at 37° C. Harvest cells when they become confluent and freeze in freezing medium at 1×10e^7 cells/mL as “assay ready frozen cells” and store in liquid nitrogen. To run the assay, plate 40,000 HCT116 cells/well in a 96-well tissue culture plate and incubate at 37° C. in a 5% CO2 incubator overnight. Test compounds at 10 concentrations starting at a 20 μM top concentration and utilize a 1:3 dilution scheme (20 μM to 0.001 μM) with a final DMSO concentration of 0.5% (v/v). Add compounds in 20 μL serum free growth medium and incubate at 37° C. for two hours. Remove growth medium and add 50 μL of 1× lysis buffer [Cell Signaling Technology, #9803] containing 1×holt protease and phosphatase inhibitor cocktail [Thermo, #78441] to each well and incubate at room temperature for 10 minutes on a shaker. […] Measure the fluorescence intensity in each well by reading the plates in ENVISION® (PerkinElmer) plate reader. […]

[2] = test system: human colorectal cancer cells HCT116; experiment: Xenograft tumor model HCT116; assay type: in vivo, female athymic nude mice; conditions: oral
Protocol: (§1) The purpose of this assay is to measure reduction in tumor volume in response to test compound administration. Expand human colorectal cancer cells HCT116 (ATCC, #CCL-247) or human non-small cell lung cancer cells NCI-H358 (ATCC, # CRL-5807) in culture, harvest and inject 5×10e^6 cells in 200 μL of 1:1 HBSS+matrigel solution subcutaneously on to the rear right flank of female athymic nude mice (22-25 gm, Harlan Laboratories). Expand human pancreatic cancer cells SW1990 (ATCC, # CRL-2172) in culture, harvest and inject 2×10e^6 cells in 200 μL of 1:1 HBSS+matrigel solution subcutaneously on to the rear right flank of female athymic nude mice (22-25 gm, Harlan Laboratories). Expand human pancreatic cancer cells MIA PACA-2 (ATCC, # CRL-1420) or human non-small cell lung cancer cells A549 (ATCC, # CCl-185) in culture, harvest and inject 5×10e^6 cells in 200 μL of 1:1 HBSS+matrigel solution subcutaneously on to the rear right flank of female CB-17 SCID mice (22-25 gm, Charles River Laboratories International Inc.). Expand human melanoma cells A-375 (ATCC, # CRL-1619) in culture, harvest and inject 5×10e^6 cells in 200 μL of 1:1 HBSS+matrigel solution subcutaneously on to the rear right flank of female NIH nude rats (140-160 gm, Taconic Farms). Measure tumor growth and body weight twice per week beginning the seventh day after the implantation. When tumor sizes reach 200-400 mm^3, randomize animals and group into groups of eight to ten animals. Prepare test compound in an appropriate vehicle (vehicle: 1% HEC/0.25% Tween 80/0.05% Antifoam) and administer by oral gavage for 14 to 28 days. Tumor response is determined by tumor volume measurement performed twice a week during the course of treatment.

[3] = test system: human pancreatic cancer cells SW1990; experiment: Xenograft tumor model SW1990; assay type: in vivo, female athymic nude mice; conditions: oral
Protocol: as §1, with “Measure tumor growth and body weight twice per week beginning the seventh day after the implantation. When tumor sizes reach 200-400 mm^3, randomize animals and group into groups of eight to ten animals. Prepare test compound in an appropriate vehicle (vehicle: 1% HEC/0.25% Tween 80/0.05% Antifoam) and administer by oral gavage for 14 to 28 days.” left out

[4] = test system: human non-small cell lung cancer cells A549; experiment: Xenograft tumor model A549; assay type: in vivo, female CB-17 SCID mice; conditions: oral
Protocol: as §1, with “Measure tumor growth and body weight twice per week beginning the seventh day after the implantation. When tumor sizes reach 200-400 mm^3, randomize animals and group into groups of eight to ten animals. Prepare test compound in an appropriate vehicle (vehicle: 1% HEC/0.25% Tween 80/0.05% Antifoam) and administer by oral gavage for 14 to 28 days.” left out

T1 sequence (P27361 whole entry): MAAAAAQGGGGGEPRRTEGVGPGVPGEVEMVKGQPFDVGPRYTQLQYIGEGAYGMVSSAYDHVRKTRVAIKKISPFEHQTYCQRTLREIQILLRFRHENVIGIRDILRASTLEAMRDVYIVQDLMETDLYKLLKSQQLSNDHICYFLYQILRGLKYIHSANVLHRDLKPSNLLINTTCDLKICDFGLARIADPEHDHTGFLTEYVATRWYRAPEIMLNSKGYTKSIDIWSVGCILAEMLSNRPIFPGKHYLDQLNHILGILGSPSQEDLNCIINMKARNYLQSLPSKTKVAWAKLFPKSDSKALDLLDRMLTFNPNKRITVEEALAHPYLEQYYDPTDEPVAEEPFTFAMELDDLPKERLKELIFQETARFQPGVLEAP

SMILES: COCCN1C(=O)c2cc(-c3ccnc(Nc4ccnn4C)c3)sc2C1(C)C [Example 1, 5-(2-Methoxyethyl)-6,6-dimethyl-2-{2-[(1-methyl-1H-pyrazol-5-yl)amino]pyridin-4-yl}-5,6-dihydro-4H-thieno[2,3-c]pyrrol-4-one]
- IC50 (ERK1): 1.5 nM
- IC50 [1]: 261 nM
- Delta T/C (%) ([2]; HCT116, 10 mg/kg BID, p 0.023): 55%
- Delta T/C (%) ([2]; HCT116, 25 mg/kg BID, p <0.001): 89%
- Regression (%) ([2]; HCT116, 50 mg/kg BID, p <0.001): −31%
- Delta T/C (%) ([2]; HCT116, 50 mg/kg QD, p <0.001): 83%
- Delta T/C (%) ([2]; HCT116, 75 mg/kg QD, p <0.001): 98%
- Delta T/C (%) ([3]; SW1990, 10 mg/kg BID, p 0.364): 24%
- Delta T/C (%) ([3]; SW1990, 30 mg/kg BID, p 0.005): 64%
- Delta T/C (%) ([4]; A549, 10 mg/kg BID, p 0.471): 13%
- Delta T/C (%) ([4]; A549, 30 mg/kg BID, p <0.001): 66%
